Consider four compounds from US7431953B2, “Skin preparation for external use containing Purpuricenus temminckii frass as the active ingredient” (Nihon University, priority 2002, dated 2008).

This experiment concerns rat-derived basophils (RBL-2H3). The experiment in a line: β-Hexosaminidase release-inhibition assay. The experiment is classed as cell-based. To be noted: antigen (DNP-BSA)-stimulated RBL-2H3; FIG. 7, FIG. 8. The protocol: The assay principle of the β-hexosaminidase release assay is as follows:
β-hexosaminidase is a glycolytic enzyme, and is one of the lysosome enzymes occurring abundantly in granules of mast cells.
In the β-hexosaminidase release assay, p-nitrophenyl phosphate is separated due to the presence of this enzyme. The separated p-nitrophenyl phosphate is determined by a photometric method (405 nm), and the result is set as the β-hexosaminidase enzyme activity.
The effect of inhibiting β-hexosaminidase release was evaluated using the anti-allergic effect test that uses as an index β-hexosaminidase released from the rat-derived basophils (RBL-2H3).
RBL-2H3 cells were cultured (5% carbon dioxide, 37° C.) in an Eagle minimum essential medium containing 10% fetal calf serum (FCS), 100 units/mL penicillin and 100 μg/mL streptomycin. Then, the cells were plated to a 24-well flat-bottomed microplate for cell culture at 2.5×10^5 cells/well ([…] medium/well). By culturing for 24 hours (5% carbon dioxide, 37° C.), the cells were sensitized. The sensitized cells were then washed once in 500 μl of PBF, and 160 μl of the siraganian buffer containing 5.6 mM glucose, 1 mM calcium chloride and 0.1% BSA was added. A sample solution at each concentration and 20 μl of the test substance solution (DMSO: 0.1%) were added, and ten minutes later the antigen (DNP-BSA: 10 μg/mL) was added and incubated for 10 minutes to stimulate the cells. After stopping the reaction by cooling with ice for 10 minutes, 50 μl of the supernatant was transferred to a 96-well flat-bottomed microtiter plate, to which 100 μl of the enzyme reaction was added and mixed. After determining absorbance of the mixture by a microplate reader, the release ratio was determined by the following equation (measurement wavelength: 405 nm, reference wavelength: 655 nm). β-hexosaminidase release ratio (%)=[amount of β-hexosaminidase released by stimulation/amount of total intracellular β-hexosaminidase]×100
Total intracellular β-hexosaminidase was determined using the supernatant obtained by centrifuging the cells disrupted by an ultrasonic disruption instrument.
For `CC[C@H](CC[C@@H](C)[C@H]1CC[C@H]2[C@@H]3CC(=O)C4=CC(=O)CC[C@]4(C)[C@H]3CC[C@]12C)C(C)C` [stigmast-4-ene-3,6-dione], the “Effect of inhibiting β-hexosaminidase release” value is listed as “roughly confirmed”.

Consider `CC[C@H](CC[C@@H](C)[C@H]1CCC2[C@@H]3CCC4=CC(=O)CC[C@]4(C)C3CC[C@@]21C)C(C)C` (stereo partly shown) [stigmast-4-en-3-one], for which the “Effect of inhibiting β-hexosaminidase release” value is listed as “roughly confirmed”. For the compound `CC[C@H](/C=C/[C@@H](C)[C@H]1CCC2[C@@H]3CCC4=CC(=O)CC[C@]4(C)C3CC[C@@]21C)C(C)C` (stereo partly shown) [stigmasta-4,22-dien-3-one], the “Effect of inhibiting β-hexosaminidase release” value is listed as “roughly confirmed”. With `c1ccc2c(c1)[I+]c1ccccc1-2` [DPI, reference compound], the “Effect of inhibiting β-hexosaminidase release” value is listed as “inhibited, in a concentration-dependent manner”.
